# Laboratory results as given in paper PMC6637479, “Identification of undecylenic acid as EAG channel inhibitor using surface plasmon resonance-based screen of KCNH channels” (BMC Pharmacology & Toxicology, 2019).
# Biological target: T1, mEAG1 (Mus musculus, UniProt Q60603)
# T1 construct: gene Kcnh1; PAS domain, residues 7–136 (N-terminal 6-His)
# T1 sequence (Q60603 7-136): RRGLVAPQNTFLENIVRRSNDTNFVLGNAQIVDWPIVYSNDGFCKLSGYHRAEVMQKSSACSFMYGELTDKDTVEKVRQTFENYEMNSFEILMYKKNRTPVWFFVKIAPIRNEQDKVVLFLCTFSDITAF
# Test: SPR steady-state dose response (Biacore […]); also inhibits full-length mEAG1 currents in inside-out patches, IC50 […]
# Format: binding
compound,measurement,value
C=CCCCCCCCCC(=O)O [undecylenic acid],Kd,~11 µM
